Measurements from patent publication US20110230476A1, “PI3 KINASE INHIBITORS AND USES THEREOF” (AVILA THERAPEUTICS, INC., priority 2009, published 2011).

Assays:
[1] = target: T1, PI3Kα (p110α/p85α) (Homo sapiens, UniProt P42336); experiment: HTRF assay, potency against active PI3Kα; format: biochemical; conditions: HTRF; [ATP]=50 μM, [di-C8-PIP2]=10 μM; 30 min pre-incubation; read-out: PI3Kα Inhibition
T1 construct: purchased BPS Bioscience (San Diego, Calif.) or Millipore (Billerica, Mass.)
Procedure, shortened: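 Active p110/p85α lipid kinase reactions were started with ATP and run 30-60 minutes at 25 °C, then stopped and developed with HTRF detection mix. HTRF ratio converted to % inhibition against ±enzyme controls; IC50 from log[inhibitor] vs response, variable slope.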

[2] = system: Phospho-Akt(Ser473); experiment: Dose response in SKOV3 cells as determined by in-cell Western; format: cell-based; conditions: Homo sapiens, SK-OV-3; SKOV3 cells, 1 hr; read-out: pAKT Inhibition in cell Western
Protocol: Dose Response in SKOV3 Cells as Determined by in-Cell Western
Twenty four hours later the media was removed and replaced with 100 ul media containing test compound or control compound and cells were returned to the incubator for 1 hr. At the end of the hour, the media was removed and the cells were washed once with PBS, then fixed for 20 minutes at room temperature in 4% formaldehyde in PBS. The formaldehyde was removed and cells were washed 5 times for 5 minutes with 100 ul of Permeabilization Buffer (PBS+0.1% Triton X-100) at room temperature with gentle shaking. The last wash was removed and replaced with 150 ul of Odyssey Blocking Buffer (Li-Cor, Lincoln, Nebr.) and incubated for 90 minutes at room temperature with gentle shaking.
The Blocking Buffer was then replaced with 50 ul of primary antibody mix (rabbit anti-Phospho-Akt(Ser473) at 1:100 (Cell Signaling Technology, Boston, Mass.) and mouse anti-tubulin at 1:5000 (Sigma Aldrich, St. Louis, Mo.) diluted in Odyssey Blocking Buffer) and incubated overnight at room temperature with gentle shaking.
The next morning, the antibody mix was removed and the wells were washed 5 times for 5 minutes with PBS+0.1% Tween-20. The last wash was replaced with 50 ul of secondary antibody mix (goat anti-rabbit-IRDye-680 and goat anti-mouse-IRDye-800 (Li-Cor), both diluted 1:1000 in Odyssey Blocking Buffer+0.2% Tween-20) and incubated for 1 hour at room temperature with gentle shaking. The antibody mix was removed and the wells were washed 5 times for 5 minutes in PBS+0.1% Tween-20, then 1 time with ddH2O.
The plates were scanned on an Odyssey machine (Li-Cor) with a 3 mm focus offset at an intensity of 8 in both channels and the data was analyzed using the Odyssey software.

T1 sequence (P42336 whole entry): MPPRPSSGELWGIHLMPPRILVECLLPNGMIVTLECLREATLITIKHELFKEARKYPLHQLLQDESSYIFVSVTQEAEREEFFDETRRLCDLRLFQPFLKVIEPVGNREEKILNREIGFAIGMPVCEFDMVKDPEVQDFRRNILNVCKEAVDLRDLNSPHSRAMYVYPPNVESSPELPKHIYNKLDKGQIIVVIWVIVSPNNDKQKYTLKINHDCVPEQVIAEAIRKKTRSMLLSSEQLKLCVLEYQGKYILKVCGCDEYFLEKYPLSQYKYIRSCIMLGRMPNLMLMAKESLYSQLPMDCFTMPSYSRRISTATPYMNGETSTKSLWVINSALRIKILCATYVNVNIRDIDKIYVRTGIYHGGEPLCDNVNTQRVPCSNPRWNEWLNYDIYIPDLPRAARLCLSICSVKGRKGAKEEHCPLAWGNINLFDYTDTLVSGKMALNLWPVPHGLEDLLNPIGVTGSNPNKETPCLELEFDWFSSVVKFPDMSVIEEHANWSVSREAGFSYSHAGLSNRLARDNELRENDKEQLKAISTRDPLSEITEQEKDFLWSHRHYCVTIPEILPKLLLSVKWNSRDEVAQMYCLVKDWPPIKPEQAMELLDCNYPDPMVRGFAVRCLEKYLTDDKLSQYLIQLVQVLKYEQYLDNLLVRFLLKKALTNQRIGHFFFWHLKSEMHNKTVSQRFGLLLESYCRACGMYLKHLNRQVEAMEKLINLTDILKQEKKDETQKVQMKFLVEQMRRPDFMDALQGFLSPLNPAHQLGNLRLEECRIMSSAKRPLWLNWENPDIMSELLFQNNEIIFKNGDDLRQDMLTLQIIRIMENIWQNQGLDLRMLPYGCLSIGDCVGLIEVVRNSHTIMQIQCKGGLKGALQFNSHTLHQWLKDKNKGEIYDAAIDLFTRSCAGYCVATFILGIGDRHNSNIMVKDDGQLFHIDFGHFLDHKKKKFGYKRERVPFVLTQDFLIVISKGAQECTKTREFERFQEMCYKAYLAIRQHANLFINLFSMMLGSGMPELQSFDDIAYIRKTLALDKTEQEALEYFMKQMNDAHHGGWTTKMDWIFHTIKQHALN
T1 sequence (P27986 whole entry partner): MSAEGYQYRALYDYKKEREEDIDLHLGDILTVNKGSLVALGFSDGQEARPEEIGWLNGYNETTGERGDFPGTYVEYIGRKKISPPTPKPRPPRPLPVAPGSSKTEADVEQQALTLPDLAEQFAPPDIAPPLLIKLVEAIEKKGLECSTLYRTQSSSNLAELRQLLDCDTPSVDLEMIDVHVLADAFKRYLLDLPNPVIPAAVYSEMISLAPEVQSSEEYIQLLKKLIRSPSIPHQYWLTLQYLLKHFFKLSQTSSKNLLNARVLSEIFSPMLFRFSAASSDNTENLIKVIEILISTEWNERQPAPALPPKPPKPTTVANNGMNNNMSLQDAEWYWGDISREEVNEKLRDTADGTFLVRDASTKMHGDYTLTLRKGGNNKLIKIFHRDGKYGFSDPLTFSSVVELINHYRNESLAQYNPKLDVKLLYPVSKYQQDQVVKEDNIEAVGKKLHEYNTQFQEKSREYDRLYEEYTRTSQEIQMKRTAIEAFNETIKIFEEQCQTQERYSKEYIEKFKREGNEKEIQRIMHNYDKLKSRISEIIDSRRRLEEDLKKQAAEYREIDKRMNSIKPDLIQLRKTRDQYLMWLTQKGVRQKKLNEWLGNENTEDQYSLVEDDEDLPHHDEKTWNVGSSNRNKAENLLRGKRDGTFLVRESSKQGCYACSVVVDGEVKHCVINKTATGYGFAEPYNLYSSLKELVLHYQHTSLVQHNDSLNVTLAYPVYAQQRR

Structure (SMILES)	IC50 [1]	EC50 [2]
C/C=C/C(=O)CCC(=O)NCc1ccc(-c2cc3nc(-c4cccc5[nH]ncc45)nc(N4CCOCC4)c3s2)cc1 [II-a-115, (E)-N-(4-(2-(1H-indazol-4-yl)-4-morpholinothieno[3,2-d]pyrimidin-6-yl)benzyl)-4-oxohept-5-enamide]	10 to 100 nM	100 to 1000 nM
C=CC(=O)Nc1ccc(C(=O)N2CCN(Cc3cc4nc(-c5cccc6[nH]ncc56)nc(N5CCOCC5)c4s3)CC2)cc1 [II-a-117, N-(4-(4-((2-(1H-indazol-4-yl)-4-morpholinothieno[3,2-d]pyrimidin-6-yl)methyl)piperazine-1-carbonyl)phenyl)acrylamide]	100 to 1000 nM	10 to 100 nM
C=CC(=O)Nc1ccc(S(=O)(=O)N2CCN(Cc3cc4nc(-c5cccc6[nH]ncc56)nc(N5CCOCC5)c4s3)CC2)cc1 [II-a-118, N-(4-(4-((2-(1H-indazol-4-yl)-4-morpholinothieno[3,2-d]pyrimidin-6-yl)methyl)piperazin-1-ylsulfonyl)phenyl)acrylamide]	100 to 1000 nM	100 to 1000 nM
CC(C)=CC(=O)CCC(=O)NCc1ccc(-c2cc3nc(-c4cccc(O)c4)nc(N4CCOCC4)c3s2)cc1 [II-a-122, N-(4-(2-(3-hydroxyphenyl)-4-morpholinothieno[3,2-d]pyrimidin-6-yl)benzyl)-6-methyl-4-oxohept-5-enamide]	10 to 100 nM	100 to 1000 nM
C/C=C/C(=O)CCC(=O)N1CCC(O)(CCc2cc3nc(-c4cccc(O)c4)nc(N4CCOCC4)c3s2)CC1 [II-a-123, (E)-1-(4-hydroxy-4-(2-(2-(3-hydroxyphenyl)-4-morpholinothieno[3,2-d]pyrimidin-6-yl)ethyl)piperidin-1-yl)hept-5-ene-1,4-dione]	< 10 nM	10 to 100 nM
O=C(/C=C/c1cccs1)CCC(=O)N1CCN(Cc2cc3nc(-c4cccc5[nH]ncc45)nc(N4CCOCC4)c3s2)CC1 [II-a-126, (E)-1-(4-((2-(1H-indazol-4-yl)-4-morpholinothieno[3,2-d]pyrimidin-6-yl)methyl)piperazin-1-yl)-6-(thiophen-2-yl)hex-5-ene-1,4-dione]	100 to 1000 nM	≤ 10 nM
C=CC(=O)Nc1ccc(N2CCN(C(=O)c3cc4nc(-c5cccc(O)c5)nc(N5CCOCC5)c4s3)CC2)cc1 [II-a-127, N-(4-(4-(2-(3-hydroxyphenyl)-4-morpholinothieno[3,2-d]pyrimidine-6-carbonyl)piperazin-1-yl)phenyl)acrylamide]	100 to 1000 nM	≤ 10 nM
Cn1cncc1/C=C/C(=O)CCC(=O)N1CCN(Cc2cc3nc(-c4cccc5[nH]ncc45)nc(N4CCOCC4)c3s2)CC1 [II-a-130, (E)-1-(4-((2-(1H-indazol-4-yl)-4-morpholinothieno[3,2-d]pyrimidin-6-yl)methyl)piperazin-1-yl)-6-(1-methyl-1H-imidazol-5-yl)hex-5-ene-1,4-dione]	100 to 1000 nM	10 to 100 nM
O=C(/C=C/c1cccnc1)CCC(=O)N1CCN(Cc2cc3nc(-c4cccc5[nH]ncc45)nc(N4CCOCC4)c3s2)CC1 [II-a-132, (E)-1-(4-((2-(1H-indazol-4-yl)-4-morpholinothieno[3,2-d]pyrimidin-6-yl)methyl)piperazin-1-yl)-6-(pyridin-3-yl)hex-5-ene-1,4-dione]	100 to 1000 nM	10 to 100 nM
O=C(/C=C/c1ccccn1)CCC(=O)N1CCN(Cc2cc3nc(-c4cccc5[nH]ncc45)nc(N4CCOCC4)c3s2)CC1 [II-a-133, (E)-1-(4-((2-(1H-indazol-4-yl)-4-morpholinothieno[3,2-d]pyrimidin-6-yl)methyl)piperazin-1-yl)-6-(pyridin-2-yl)hex-5-ene-1,4-dione]	100 to 1000 nM	10 to 100 nM
O=C(/C=C/c1ccccc1)CCCC(=O)N1CC=C(c2cc3nc(-c4cccc5[nH]ncc45)nc(N4CCOCC4)c3s2)CC1 [II-a-137, (E)-1-(4-(2-(1H-indazol-4-yl)-4-morpholinothieno[3,2-d]pyrimidin-6-yl)-5,6-dihydropyridin-1(2H)-yl)-7-phenylhept-6-ene-1,5-dione]	10 to 100 nM	10 to 100 nM
COc1c(OCCOCCNS(C)(=O)=O)ccc2c1N=C(NC(=O)c1cccnc1)N1CCN=C21 [IX-ref]	–	10 to 100 nM
CNC(=O)Nc1ccc(-c2nc(N3CCOCC3)c3cnn(C4CCN(C(=O)OC)CC4)c3n2)cc1 [VII-ref]	–	10 to 100 nM
COc1ncc(-c2ccc3nccc(-c4ccncc4)c3c2)cc1NS(=O)(=O)c1ccc(F)cc1F [X-ref]	–	≤ 10 nM
Nc1ncnc2c1c(-c1cnc3[nH]ccc3c1)nn2C1CCCC1 [XI-ref]	–	10 to 100 nM
CC(C)=CC(=O)C(=O)N1CCC(C#Cc2cc(-c3cnc(N)nc3)nc(N3CCOCC3)c2)CC1 [XII-32, 1-(4-((2-(2-aminopyrimidin-5-yl)-6-morpholinopyridin-4-yl)ethynyl)piperidin-1-yl)-4-methylpent-3-ene-1,2-dione]	100 to 1000 nM	–
CC(C)=CC(=O)C1(C(=O)N2CCC(C#Cc3cc(-c4cnc(N)nc4)nc(N4CCOCC4)c3)CC2)CC1 [XII-33, 1-(1-(4-((2-(2-aminopyrimidin-5-yl)-6-morpholinopyridin-4-yl)ethynyl)piperidine-1-carbonyl)cyclopropyl)-3-methylbut-2-en-1-one]	100 to 1000 nM	–
CC(C)=CC(=O)CN1CCN(C2CCN(c3cc(-c4cnc(N)nc4)nc(N4CCOCC4)c3)CC2)CC1 [XII-34, 1-(4-(1-(2-(2-aminopyrimidin-5-yl)-6-morpholinopyridin-4-yl)piperidin-4-yl)piperazin-1-yl)-4-methylpent-3-en-2-one]	100 to 1000 nM	–
CC(C)=CC(=O)C(=O)N1CCN(C2CCN(c3cc(-c4cnc(N)nc4)nc(N4CCOCC4)c3)CC2)CC1 [XII-35, 1-(4-(1-(2-(2-aminopyrimidin-5-yl)-6-morpholinopyridin-4-yl)piperidin-4-yl)piperazin-1-yl)-4-methylpent-3-ene-1,2-dione]	100 to 1000 nM	–
CC(C)=CC(=O)C1(C(=O)N2CCC3(CC2)CCN(c2cc(-c4cnc(N)nc4)nc(N4CCOCC4)c2)CC3)CC1 [XII-36, 1-(1-(9-(2-(2-aminopyrimidin-5-yl)-6-morpholinopyridin-4-yl)-3,9-diazaspiro[5.5]undecane-3-carbonyl)cyclopropyl)-3-methylbut-2-en-1-one]	100 to 1000 nM	–
CC(C)=CC(=O)C1(C(=O)N2CC=C(C#Cc3cc(-c4cnc(N)nc4)nc(N4CCOCC4)c3)CC2)CC1 [XII-37, 1-(1-(4-((2-(2-aminopyrimidin-5-yl)-6-morpholinopyridin-4-yl)ethynyl)-1,2,3,6-tetrahydropyridine-1-carbonyl)cyclopropyl)-3-methylbut-2-en-1-one]	10 to 100 nM	–
CC(C)=CC(=O)C1(C(=O)N2CCC3(CC2)CN(c2cc(-c4cnc(N)nc4)nc(N4CCOCC4)c2)C3)CC1 [XII-38, 1-(1-(2-(2-(2-aminopyrimidin-5-yl)-6-morpholinopyridin-4-yl)-2,7-diazaspiro[3.5]nonane-7-carbonyl)cyclopropyl)-3-methylbut-2-en-1-one]	100 to 1000 nM	–
C/C=C/C(=O)CCC(=O)N1CCC2(CC1)CN(c1cc(-c3cnc(N)nc3)nc(N3CCOCC3)c1)C2 [XII-40, (E)-1-(2-(2-(2-aminopyrimidin-5-yl)-6-morpholinopyridin-4-yl)-2,7-diazaspiro[3.5]nonan-7-yl)hept-5-ene-1,4-dione]	100 to 1000 nM	–
CC(C)=CC(=O)CCCC(=O)N1CC2(CCN(c3cc(-c4cnc(N)nc4)nc(N4CCOCC4)c3)CC2)C1 [XII-44, 1-(7-(2-(2-aminopyrimidin-5-yl)-6-morpholinopyridin-4-yl)-2,7-diazaspiro[3.5]nonan-2-yl)-7-methyloct-6-ene-1,5-dione]	> 1000 nM	–
C=CC(=O)Nc1ccc(C(=O)N2CCN(c3cc(-c4cnc(N)nc4)nc(N4CCOCC4)c3)CC2)cc1 [XII-53, N-(4-(4-(2-(2-aminopyrimidin-5-yl)-6-morpholinopyridin-4-yl)piperazine-1-carbonyl)phenyl)acrylamide]	100 to 1000 nM	–
CCCC(=O)CCC(=O)N1CCC(n2nc(-c3ccc(OC)c(OC)c3)c3c(N)ncnc32)CC1 [XI^R-1, 1-(4-(4-amino-3-(3,4-dimethoxyphenyl)-1H-pyrazolo[3,4-d]pyrimidin-1-yl)piperidin-1-yl)heptane-1,4-dione]	> 1000 nM	–
CCC(=O)N(C)CC(=O)N1CCC(n2nc(-c3ccc(OC)c(OC)c3)c3c(N)ncnc32)CC1 [XI^R-2, N-(2-(4-(4-amino-3-(3,4-dimethoxyphenyl)-1H-pyrazolo[3,4-d]pyrimidin-1-yl)piperidin-1-yl)-2-oxoethyl)-N-methylpropionamide]	> 1000 nM	–
